Assay results: the supplement of paper PMC5908809

Experiments:
KHYG-1 (IL-2 2.5 ng/mL) [1] = assay: percent inhibition of viability; higher = more inhibition; details: 72 h
NK-92 (IL-2 2.5 ng/mL) [2] = assay: as above; details: 72 h
[3] = system: normal primary NK cells, pool 2 (3 donors) (IL-2 2.5 ng/mL); assay: as above; details: 72 h
DERL-7 (IL-2 2.5 ng/mL) [4] = assay: as above; details: 72 h
[5] = system: normal primary NK cells, pool 3 (3 donors) (IL-2 2.5 ng/mL); assay: as above; details: 72 h
NK-YS (IL-2 2.5 ng/mL) [6] = assay: as above; details: 72 h
[7] = system: normal primary NK cells, pool 1 (3 donors) (IL-2 2.5 ng/mL); assay: as above; details: 72 h
YT (IL-2 2.5 ng/mL) [8] = assay: as above; details: 72 h
[9] = system: normal primary NK cells, pool 1 (3 donors), resting (IL-2 0 ng/mL); assay: as above; details: 72 h
SNK-6 (IL-2 2.5 ng/mL) [10] = assay: as above; details: 72 h
IMC-1 (IL-2 20 ng/mL) [11] = assay: as above; details: 72 h
KAI3 (IL-2 2.5 ng/mL) [12] = assay: as above; details: 72 h
NKL (IL-2 2.5 ng/mL) [13] = assay: as above; details: 72 h
KHYG-1 (IL-2 2.5 ng/mL) [14] = assay: drug sensitivity score (DSS) (DSS units); higher = more sensitive; extreme values may be limits of the assay; details: 72 h
NK-92 (IL-2 2.5 ng/mL) [15] = assay: as above; details: 72 h
[16] = system: normal primary NK cells, pool 2 (3 donors) (IL-2 2.5 ng/mL); assay: as above; details: 72 h
DERL-7 (IL-2 2.5 ng/mL) [17] = assay: as above; details: 72 h
[18] = system: normal primary NK cells, pool 3 (3 donors) (IL-2 2.5 ng/mL); assay: as above; details: 72 h
NK-YS (IL-2 2.5 ng/mL) [19] = assay: as above; details: 72 h
[20] = system: normal primary NK cells, pool 1 (3 donors) (IL-2 2.5 ng/mL); assay: as above; details: 72 h
YT (IL-2 2.5 ng/mL) [21] = assay: as above; details: 72 h
[22] = system: normal primary NK cells, pool 1 (3 donors), resting (IL-2 0 ng/mL); assay: as above; details: 72 h
SNK-6 (IL-2 2.5 ng/mL) [23] = assay: as above; details: 72 h
IMC-1 (IL-2 20 ng/mL) [24] = assay: as above; details: 72 h
KAI3 (IL-2 2.5 ng/mL) [25] = assay: as above; details: 72 h
NKL (IL-2 2.5 ng/mL) [26] = assay: as above; details: 72 h
[27] = system: normal NK cells expanded with K562-aAPC; assay: as above; details: 72 h; IL-2 2.5 ng/mL
Procedure: (§1)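 Drug sensitivity and resistance testing on K562-aAPC-expanded normal NK cells: 5 concentrations (10-fold steps over a 10,000-fold range), 72 h at 37 °C, viability by CellTiter-Glo normalised to DMSO and benzethonium chloride controls; DSS from the fitted curve.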

[28] = system: normal NK cells expanded with K562-aAPC; assay: percent inhibition of viability; higher = more inhibition; details: 72 h, IL-2 2.5 ng/mL
Procedure: as §1

CN(C)C/C=C/C(=O)Nc1cc2c(Nc3ccc(F)c(Cl)c3)ncnc2cc1O[C@H]1CCOC1 [Afatinib] (max concentration tested 1000 nM)
percent inhibition of viability [%]
Details	0.1 nM	1 nM	10 nM	100 nM	1000 nM
DERL-7 (IL-2 2.5 ng/mL) [4]	1.24	-0.84	3.12	3.53	40.4
IMC-1 (IL-2 20 ng/mL) [11]	-4.64	0.23	3.73	0.77	-7.53
KAI3 (IL-2 2.5 ng/mL) [12]	-6.04	-6.37	-2.67	-0.11	17.7
KHYG-1 (IL-2 2.5 ng/mL) [1]	1.25	0.47	0.09	5.88	8.01
NK-92 (IL-2 2.5 ng/mL) [2]	-4.74	-8.88	-4.7	6.1	20
NK-YS (IL-2 2.5 ng/mL) [6]	-6.74	-1.03	-0.59	1.9	17.9
NKL (IL-2 2.5 ng/mL) [13]	4.2	5.29	8.09	15.9	30.1
SNK-6 (IL-2 2.5 ng/mL) [10]	5.26	23.4	23.4	27.9	-1.27
YT (IL-2 2.5 ng/mL) [8]	0.42	0.78	2.66	5.09	29.2
[3]	-9.45	-8.4	7.17	-5.73	18.4
[5]	-7.17	-9.3	9.58	-8.16	3.09
[7]	0.9	-20.4	-8.14	-16.9	17.6
[9]	1.52	-21.3	-1.76	-18.2	31.8
[28]	-3.84	-0.9	0.35	8.86	23.9

Details	drug sensitivity score
DERL-7 (IL-2 2.5 ng/mL) [17]	2.57
IMC-1 (IL-2 20 ng/mL) [24]	0
KAI3 (IL-2 2.5 ng/mL) [25]	0.41
KHYG-1 (IL-2 2.5 ng/mL) [14]	0
NK-92 (IL-2 2.5 ng/mL) [15]	1.32
NK-YS (IL-2 2.5 ng/mL) [19]	0.66
NKL (IL-2 2.5 ng/mL) [26]	3.07
SNK-6 (IL-2 2.5 ng/mL) [23]	0
YT (IL-2 2.5 ng/mL) [21]	2.06
[16]	0.29
[18]	0
[20]	0.16
[22]	0.88
[27]	1.97

CCn1c(-c2nonc2N)nc2c(C#CC(C)(C)O)ncc(OC[C@H]3CCCNC3)c21 (max concentration tested 10000 nM)
percent inhibition of viability [%]
Details	1 nM	10 nM	100 nM	1000 nM	10000 nM
DERL-7 (IL-2 2.5 ng/mL) [4]	-2.25	7.79	17.3	63.7	76.9
IMC-1 (IL-2 20 ng/mL) [11]	-5.57	1.4	-4.57	-6.32	-11.7
KAI3 (IL-2 2.5 ng/mL) [12]	0.15	-2.81	1.43	5.52	-1.32
KHYG-1 (IL-2 2.5 ng/mL) [1]	-3.45	-0.24	-0.07	6.49	7.82
NK-92 (IL-2 2.5 ng/mL) [2]	-4.48	-3.46	-8.79	-1.49	26.3
NK-YS (IL-2 2.5 ng/mL) [6]	-2.15	0.74	-0.26	2.64	-8.44
NKL (IL-2 2.5 ng/mL) [13]	-5.47	-17.8	-8.99	0.96	9.13
SNK-6 (IL-2 2.5 ng/mL) [10]	1.15	26.6	-2.76	-11.1	-25.3
YT (IL-2 2.5 ng/mL) [8]	-1.14	-1.15	0.26	5.9	9.45
[3]	-2.46	-9.24	-1.71	8.35	69.8
[5]	-10.1	-4.39	-9.15	11.5	66.5
[7]	-8.01	-9.66	4.32	9.43	76.3
[9]	-12.7	-5.26	17.9	18.4	83.5
[28]	-1.22	-3.93	-1.94	9.38	20.1

Details	drug sensitivity score
DERL-7 (IL-2 2.5 ng/mL) [17]	13.9
IMC-1 (IL-2 20 ng/mL) [24]	0
KAI3 (IL-2 2.5 ng/mL) [25]	0
KHYG-1 (IL-2 2.5 ng/mL) [14]	0
NK-92 (IL-2 2.5 ng/mL) [15]	0.93
NK-YS (IL-2 2.5 ng/mL) [19]	0
NKL (IL-2 2.5 ng/mL) [26]	0
SNK-6 (IL-2 2.5 ng/mL) [23]	0
YT (IL-2 2.5 ng/mL) [21]	0
[16]	5.23
[18]	5.55
[20]	5.8
[22]	7.29
[27]	1.58
